Assay results reported in paper PMC11100219, “Dual-function antimicrobial-antibiofilm peptide hybrid to tackle biofilm-forming Staphylococcus epidermidis” (Annals of Clinical Microbiology and Antimicrobials, 2024).
Residues, ends and D or L forms follow the SMILES beside them.

What was measured:
[1] = tested on: human lung fibroblast MRC-5 cell lines (ATCC CCL-171); experiment: MTT cytotoxicity assay; assay type: cell-based; conditions: MRC-5, 250 µg/mL (maximum concentration tested), 24 h
Procedure: The toxicity of peptide BiF2_5K7K against human lung fibroblast MRC-5 cell lines (ATCC CCL-171) was investigated by MTT colorimetric assay. Briefly, MRC-5 cells were cultured in Minimum Essential Medium [MEM; supplemented with 10% heat-inactivated FBS and 1% Penicillin-Streptomycin] in 5% CO2 at 37°C. Following an overnight incubation, MRC-5 cells were diluted to 10,000 cells/well and placed in 96-well microplates. Subsequently, they were exposed to BiF2_5K7K at 0.98 to 250 µg/mL. After incubation for 24 h, MTT solution (0.4 mg/mL) was added to each well and incubated for an additional 3 h under 5% CO2 at 37°C. The supernatant was then removed and 100 µL DMSO added, and absorbance was measured at 570 nm using a microplate reader.

[2] = tested on: planktonic S. epidermidis; experiment: Time-killing analysis; assay type: cell-based, Staphylococcus epidermidis; conditions: for number of S. epidermidis: within 4 h, MHB, 37°C
Procedure: The time-dependent bactericidal activity of BiF2_5K7K against planktonic S. epidermidis was determined as previously described. In brief, mid-log phase bacteria in MHB were exposed to BiF2_5K7K at MIC and/or MBC for 24 h at 37°C. The bacterial suspensions were obtained at specific time point (0, 2, 4, 6, 8 and 24 h), and 10-fold serially diluted with PBS and then plated on TSA. Untreated bacterial suspension was served as a control. After incubation, the number of CFUs was determined by colony count.

[3] = tested on: mature S. epidermidis biofilm; experiment: Confocal laser scanning microscopy of mature biofilm; assay type: cell-based, Staphylococcus epidermidis
Procedure: The effect of BiF2_5K7K against mature biofilm was also investigated. In short, overnight cultures of S. epidermidis were diluted to 10^7 CFU/mL with TSB and further incubated at 37°C for 24 h to form biofilms. Next, wells were rinsed with sterile water and mature biofilms was treated with BiF2_5K7K at concentration of MBEC50 and further incubated for 24 h. Subsequently, biofilms were washed again, then stained with green Alexa-ConA and LIVE/DEADTM BacLight™ Bacterial Viability Kit (Invitrogen™, Thermo Fisher, USA) for 15 min. After staining, 2.5% glutaraldehyde was used to fixed biofilms, then observed under CLSM as described above.

[4] = tested on: S. epidermidis (ATCC 35984) biofilm; experiment: Biofilm-formation inhibitory activity, crystal violet staining; assay type: cell-based, Staphylococcus epidermidis; conditions: CV staining, TSB, 10^6 CFU/mL, 24 h, 37°C, 0.98-250 µg/mL
Procedure: The biofilm inhibitory activity of peptide derivatives was assessed by modified crystal violet (CV) staining. Briefly, the pellet of S. epidermidis (ATCC 35984) was collected through centrifugation of bacterial suspensions grown overnight at 2,500 × g for 5 min. Subsequently, the pellet was resuspended and diluted with TSB to a final concentration of 10^6 CFU/mL. Then, 50 µL of these diluted suspensions was transferred to 96-well microplates containing same volume of peptide derivatives in 10 mM phosphate buffer saline (PBS; Caisson Labs, USA), with concentrations ranging from 0.98 to 250 µg/mL. Vancomycin was used as positive control while TSB medium without bacteria was used as negative control. After 24 h of incubation and reaching static growth at 37°C, culture media as well as planktonic cells were removed, then the biofilm in each well was washed thrice with 0.85% NaCl. For CV staining, biofilms were fixed with 95% ethanol and stained with a 0.1% (v/v) CV solution for 15 min. After removal of excess dye, each well was washed thrice with 0.85% NaCl and resuspended in 95% ethanol to dissolve bound dye. Absorbance was determined at 570 nm using a Multiskan SkyHigh microplate reader (Thermo Scientific™, Singapore). All experiments were done in six technical replicates and repeated independently three times. Minimum biofilm inhibitory concentrations at 50% and 90% (MBIC50 and MBIC90) refers to concentrations of the peptide at which the inhibition of biofilm was at least 50% and 90%, respectively.

[5] = tested on: preformed S. epidermidis biofilm; experiment: Biofilm eradication activity (peg lid, colony counting); assay type: cell-based, Staphylococcus epidermidis; conditions: 24 h treatment
Procedure: The eradication capacity of BiF2_5K7K against preformed biofilm was examined as previously described with some modifications. In brief, suspensions of S. epidermidis with a final density of 10^6 CFU/mL were added to 96-well microplates, then covered with 96-peg lids (Nunc™ Immuno TSP Lids, Denmark). Following 24 h of incubation at 37°C, the peg lids were washed with 0.85% NaCl to remove culture media and non-adherent cells. Afterwards, the biofilms adherent to peg lids were incubated at 37°C for 24 h with different concentrations of peptide derivatives. The peg lids were subsequently washed and placed on new plates containing PBS. The biofilms on the lid were removed using a water bath sonicator (Bandelin SONOREX™, Germany). Biofilms were subsequently diluted and then placed on TSA. Minimum biofilm eradication concentrations at 50% and 90% (MBEC50 and MBEC90) refer to the concentration of the peptide at which established biofilm was eradicated by at least 50% and 90%, respectively.

[6] = tested on: all gram-positive bacterial strains; experiment: Mean MIC and therapeutic index, gram-positive strains; assay type: cell-based; conditions: four gram-positive strains
Procedure: (§1) The minimal inhibitory concentrations (MICs) of peptide derivatives versus planktonic bacteria were assessed using a modification of the broth microdilution assay previously described in the National Committee for Clinical Laboratory Standards (NCCLS). In brief, bacteria at mid-logarithmic growth were collected by centrifugation at 2,500 × g for 5 min. Subsequently, the pellet was resuspended and adjusted in Mueller-Hinton Broth (MHB; BD Bacto™, USA) to an OD620 of 0.05. Fifty µL of bacterial suspensions was transferred to 96-well microplates. Later, 50 µL of peptide derivatives at 0.98–250 µg/mL in 10 mM PBS, was added to wells and incubated for 24 h at 37°C with continuous shaking at 220 rpm. […] The experiments were done in three technical replicates and repeated independently.
(§2) The therapeutic index (TI) is widely used for evaluating a peptide’s efficacy and safety. It is the ratio between the minimum hemolytic concentration (MHC, the concentration causing 10% hemolysis) and the geometric mean (GM) value of the MIC [15]. […] While, both lysine-substituted peptides (BiF2_7K and BiF2_5K7K) had higher TIs against all tested biofilm-forming bacteria than did the two parent peptides, and the TI of BiF2_5K7K was higher than that of BiF2_7K.

[7] = tested on: all gram-negative bacterial strains; experiment: Mean MIC and therapeutic index, gram-negative strains; assay type: cell-based; conditions: four gram-negative strains
Procedure: as §1, §2

Q: What does the source list for `CC[C@H](C)[C@H](NC(=O)[C@H](CCCCN)NC(=O)[C@H](CCCCN)NC(=O)[C@@H](NC(=O)[C@H](CC(C)C)NC(=O)[C@@H](N)Cc1ccccc1)C(C)C)C(=O)N[C@@H](CCCCN)C(=O)N[C@@H](CCCCN)C(=O)N[C@H](C(=O)N[C@@H](CC(C)C)C(=O)N[C@@H](CCCNC(=N)N)C(=O)N[C@@H](CCCNC(=N)N)C(N)=O)[C@@H](C)CC` [BiF2_5K7K] (H-FLVKKIKKILRR-NH2; N-terminus assumed)?
A: cell viability [1]: > 99%; number of S. epidermidis ([2]; peptide at MBC): approximately 10^3 CFU/mL; regrowth ([2]; peptide at MIC, after 8 h): regrowth was observed; number of S. epidermidis ([2]; peptide at MIC): approximately 10^3 CFU/mL; fluorescence intensity ratio (live to dead cells), treated vs untreated ([3]; at MBEC50, 24 h, p-value < 0.01): significant difference; mature biofilm matrix (Alexa-ConA fluorescence intensity) ([3]; at MBEC50, 24 h treatment): significant decrease; MBIC50 ([4]; minimum concentration inhibiting biofilm formation more than 50%): 7.81 µg/mL; MBIC90 ([4]; minimum concentration inhibiting biofilm formation more than 90%): 31.25 µg/mL; MBEC50 ([5]; 24 h preformed biofilm on peg lids, 37°C): 31.25 µg/mL; MBEC90 ([5]; more than 90% of mature biofilm eradicated): 125 µg/mL; GM +, geometric mean of MIC values from all gram-positive bacterial strains [6]: 199.22 µg/mL; GM-, geometric mean of MIC values from all gram-negative bacterial strains [7]: 93.75 µg/mL
